Experimental data: patent publication US7396837B2, “Antitumoral analogs of lamellarins” (Pharma Mar, S.A.U., priority 2002, dated 2008)
Read-outs that look alike come from different tables or passages of the source.

Legend:
human topoisomerase I = biological target: T1, human topoisomerase I (Homo sapiens, UniProt P11387); test: Topoisomerase I DNA relaxation assay (supercoiled plasmid DNA); assay type: biochemical; details: supercoiled plasmid DNA, each compound tested at 1 μM, agarose gel with ethidium bromide
T1 sequence (P11387 1-765): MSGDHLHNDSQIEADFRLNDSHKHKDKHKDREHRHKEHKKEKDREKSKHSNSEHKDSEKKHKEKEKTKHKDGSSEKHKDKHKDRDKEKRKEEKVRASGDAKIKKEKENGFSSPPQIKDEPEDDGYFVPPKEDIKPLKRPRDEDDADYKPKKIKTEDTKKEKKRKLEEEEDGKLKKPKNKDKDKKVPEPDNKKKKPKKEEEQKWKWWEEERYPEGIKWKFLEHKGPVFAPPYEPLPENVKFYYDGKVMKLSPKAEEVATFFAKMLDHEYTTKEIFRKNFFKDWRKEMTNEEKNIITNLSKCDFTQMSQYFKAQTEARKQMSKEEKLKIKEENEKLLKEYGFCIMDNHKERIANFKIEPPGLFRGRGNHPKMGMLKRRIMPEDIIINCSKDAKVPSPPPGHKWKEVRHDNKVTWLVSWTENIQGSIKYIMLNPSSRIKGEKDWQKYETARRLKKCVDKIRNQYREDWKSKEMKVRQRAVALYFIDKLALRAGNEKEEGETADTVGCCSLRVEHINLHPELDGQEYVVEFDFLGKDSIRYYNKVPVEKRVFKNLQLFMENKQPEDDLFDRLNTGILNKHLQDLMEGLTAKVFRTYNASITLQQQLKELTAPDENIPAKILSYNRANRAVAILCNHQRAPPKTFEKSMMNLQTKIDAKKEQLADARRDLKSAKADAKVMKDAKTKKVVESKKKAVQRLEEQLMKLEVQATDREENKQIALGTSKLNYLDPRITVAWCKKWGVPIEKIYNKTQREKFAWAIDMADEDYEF
Summary of the method: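 Test compounds (1 μM each) were present during topoisomerase I relaxation of supercoiled plasmid DNA. Relaxation was assessed on ethidium bromide-stained agarose gels.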

SK-BR-3 = test: SRB colorimetric cell growth inhibition assay, SK-BR-3; assay type: cell-based; details: Homo sapiens; for GI50: GI=growth inhibition, read-out: GI50 SK-BR-3; for IC (TGI): read-out: TGI SK-BR-3
Summary of the method: (§1)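 Read-out: sulforhodamine B colorimetry of surviving cell mass after continued exposure of human tumour lines to sample. Values are means ± SD of three wells, expressed as GI, TGI or LC.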

LNCaP = test: SRB colorimetric cell growth inhibition assay, LNCaP; assay type: cell-based; details: Homo sapiens, LNCaP; for GI50: GI=growth inhibition, read-out: GI50 LN-caP; for IC (TGI): read-out: TGI LN-caP
Summary of the method: as §1

IGROV = test: SRB colorimetric cell growth inhibition assay, IGROV; assay type: cell-based; details: Homo sapiens, IGROV; for GI50: GI=growth inhibition, read-out: GI50 IGROV; for IC (TGI): read-out: TGI IGROV
Summary of the method: as §1

LoVo = test: SRB colorimetric cell growth inhibition assay, LoVo; assay type: cell-based; details: Homo sapiens, LoVo; for GI50: GI=growth inhibition, read-out: GI50 LOVO; for IC (TGI): read-out: TGI LOVO
Summary of the method: as §1

LoVo-Dox = test: SRB colorimetric cell growth inhibition assay, LoVo-Dox (MDR); assay type: cell-based; details: Homo sapiens; for GI50: GI=growth inhibition, read-out: GI50 LOVO-DOX; for IC (TGI): read-out: TGI LOVO-DOX
Summary of the method: as §1

A-549 = test: SRB colorimetric cell growth inhibition assay, A-549; assay type: cell-based; details: Homo sapiens; for GI50: GI=growth inhibition, read-out: GI50 A-549; for IC (TGI): read-out: TGI A-549
Summary of the method: as §1

HT-29 = test: SRB colorimetric cell growth inhibition assay, HT-29; assay type: cell-based; details: Homo sapiens; for GI50: GI=growth inhibition, read-out: GI50 HT-29; for IC (TGI): read-out: TGI HT-29
Summary of the method: as §1

PANC-1 = test: SRB colorimetric cell growth inhibition assay, PANC-1; assay type: cell-based; details: Homo sapiens; for GI50: GI=growth inhibition, read-out: GI50 PANC-1; for IC (TGI): read-out: TGI PANC-1
Summary of the method: as §1

DU-145 = test: SRB colorimetric cell growth inhibition assay, DU-145; assay type: cell-based; details: Homo sapiens; for GI50: GI=growth inhibition, read-out: GI50 DU-145; for IC (TGI): read-out: TGI DU-145
Summary of the method: as §1

IGROV-ET = test: SRB colorimetric cell growth inhibition assay, IGROV-ET (ET-743 resistant); assay type: cell-based; details: Homo sapiens; for GI50: GI=growth inhibition, read-out: GI50 IGROV-ET; for IC (TGI): read-out: TGI IGROV-ET
Summary of the method: as §1

SK-MEL-28 = test: SRB colorimetric cell growth inhibition assay, SK-MEL-28; assay type: cell-based; details: Homo sapiens; for GI50: GI=growth inhibition, read-out: GI50 MEL-28; for IC (TGI): read-out: TGI MEL-28
Summary of the method: as §1

K-562 = test: SRB colorimetric cell growth inhibition assay, K-562; assay type: cell-based; details: Homo sapiens; for GI50: GI=growth inhibition, read-out: GI50 K-562; for IC (TGI): read-out: TGI K-562
Summary of the method: as §1

[1] = TGI=total growth inhibition (cytostatic effect)
[2] = total growth inhibition (cytostatic effect)

## COc1cc(-c2c3n(c4c(=O)oc5cc(O)c(OC)cc5c24)CCc2cc(O)c(OC)cc2-3)ccc1O [Compound 109]
Human topoisomerase I
  stimulation of DNA cleavage by topoisomerase I / inhibition of topoisomerase I (nicked DNA band) in DNA relaxation assay: inactive
SK-BR-3; SK-BR-3, SK-BR-3
  GI50: 3.45 µM
SK-BR-3; SK-BR-3, SK-BR-3, LC=cell killing (cytotoxic effect), read-out: LC50 SK-BR-3
  CC50: 19 µM
SK-BR-3; SK-BR-3, SK-BR-3, TGI=total growth inhibition (cytostatic effect)
  IC (TGI): 8.1 µM
LNCaP; LN-caP
  GI50: 1.16 µM
LNCaP; LN-caP, LC=cell killing (cytotoxic effect), read-out: LC50 LN-caP
  CC50: 19.9 µM
LNCaP; LN-caP, TGI=total growth inhibition (cytostatic effect)
  IC (TGI): 1.99 µM
IGROV
  GI50: 1.8 µM
IGROV; LC=cell killing (cytotoxic effect), read-out: LC50 IGROV
  CC50: 19.9 µM
IGROV; [1]
  IC (TGI): 6.08 µM
LoVo
  GI50: 0.917 µM
LoVo; cell killing (cytotoxic effect), read-out: LC50 LOVO
  CC50: 19.9 µM
LoVo; [2]
  IC (TGI): 4.07 µM
LoVo-Dox; LOVO-DOX
  GI50: 5.64 µM
LoVo-Dox; LOVO-DOX, cell killing (cytotoxic effect), read-out: LC50 LOVO-DOX
  CC50: 19.9 µM
LoVo-Dox; LOVO-DOX, total growth inhibition (cytostatic effect)
  IC (TGI): 13.5 µM
A-549; A549, A-549
  GI50: 5.94 µM
A-549; A549, A-549, cell killing (cytotoxic effect), read-out: LC50 A-549
  CC50: 19.9 µM
A-549; A549, A-549, total growth inhibition (cytostatic effect)
  IC (TGI): 14.1 µM
HT-29; HT-29, HT-29
  GI50: 4.81 µM
HT-29; HT-29, HT-29, cell killing (cytotoxic effect), read-out: LC50 HT-29
  CC50: 19.9 µM
HT-29; HT-29, HT-29, total growth inhibition (cytostatic effect)
  IC (TGI): 19.9 µM
PANC-1; PANC-1, PANC-1
  GI50: 5.7 µM
PANC-1; PANC-1, PANC-1, cell killing (cytotoxic effect), read-out: LC50 PANC-1
  CC50: 19.9 µM
PANC-1; PANC-1, PANC-1, total growth inhibition (cytostatic effect)
  IC (TGI): 19.9 µM
DU-145; DU-145, DU-145
  GI50: 2.99 µM
DU-145; DU-145, DU-145, LC=cell killing (cytotoxic effect), read-out: LC50 DU-145
  CC50: 19.9 µM
DU-145; DU-145, DU-145, TGI=total growth inhibition (cytostatic effect)
  IC (TGI): 15.4 µM
IGROV-ET; IGROV-ET
  GI50: 9.67 µM
IGROV-ET; IGROV-ET, LC=cell killing (cytotoxic effect), read-out: LC50 IGROV-ET
  CC50: 19.9 µM
IGROV-ET; IGROV-ET, TGI=total growth inhibition (cytostatic effect)
  IC (TGI): 19.9 µM
SK-MEL-28; SK-MEL-28, MEL-28
  GI50: 0.885 µM
SK-MEL-28; SK-MEL-28, MEL-28, LC=cell killing (cytotoxic effect), read-out: LC50 MEL-28
  CC50: 10.8 µM
SK-MEL-28; SK-MEL-28, MEL-28, TGI=total growth inhibition (cytostatic effect)
  IC (TGI): 2.57 µM
K-562; K562, K-562
  GI50: 0.425 µM
K-562; K562, K-562, cell killing (cytotoxic effect), read-out: LC50 K-562
  CC50: 19.9 µM
K-562; K562, K-562, total growth inhibition (cytostatic effect)
  IC (TGI): 19.9 µM

## COc1cc(-c2c3n(c4c(=O)oc5cc(OC(=O)[C@H](N)C(C)C)c(OC)cc5c24)CCc2cc(OC(=O)[C@H](N)C(C)C)c(OC)cc2-3)ccc1OC(=O)[C@H](N)C(C)C [Compound 32]
Human topoisomerase I
  stimulation of DNA cleavage by topoisomerase I / inhibition of topoisomerase I (nicked DNA band) in DNA relaxation assay: No effect
SK-BR-3; SK-BR-3, SK-BR-3
  GI50: 1.3 µM
SK-BR-3; SK-BR-3, SK-BR-3, total growth inhibition (cytostatic effect)
  IC (TGI): 3.19 µM
SK-BR-3; SK-BR-3, read-out: LC50 SK-BR-3, SK-BR-3, cell killing (cytotoxic effect)
  CC50: 7.82 µM
LNCaP; LN-caP
  GI50: 0.429 µM
LNCaP; LN-caP, total growth inhibition (cytostatic effect)
  IC (TGI): 1.67 µM
LNCaP; read-out: LC50 LN-caP, LN-caP, cell killing (cytotoxic effect)
  CC50: 5.08 µM
IGROV; read-out: LC50 IGROV, IGROV, cell killing (cytotoxic effect)
  CC50: 6.12 µM
IGROV
  GI50: 0.561 µM
IGROV; [2]
  IC (TGI): 2.06 µM
LoVo; read-out: LC50 LOVO, LOVO, LC=cell killing (cytotoxic effect)
  CC50: 6.31 µM
LoVo
  GI50: 0.392 µM
LoVo; [1]
  IC (TGI): 1.65 µM
LoVo-Dox; LOVO-DOX
  GI50: 0.671 µM
LoVo-Dox; LOVO-DOX, TGI=total growth inhibition (cytostatic effect)
  IC (TGI): 2.42 µM
LoVo-Dox; read-out: LC50 LOVO-DOX, LOVO-DOX, LC=cell killing (cytotoxic effect)
  CC50: 8.25 µM
A-549; A549, A-549
  GI50: 1.53 µM
A-549; A549, A-549, TGI=total growth inhibition (cytostatic effect)
  IC (TGI): 3.34 µM
A-549; A549, read-out: LC50 A-549, A-549, LC=cell killing (cytotoxic effect)
  CC50: 7.33 µM
HT-29; HT-29, HT-29
  GI50: 2.66 µM
HT-29; HT-29, HT-29, TGI=total growth inhibition (cytostatic effect)
  IC (TGI): 5.3 µM
HT-29; HT-29, read-out: LC50 HT-29, HT-29, LC=cell killing (cytotoxic effect)
  CC50: 8.76 µM
PANC-1; PANC-1, PANC-1
  GI50: 0.316 µM
PANC-1; PANC-1, PANC-1, TGI=total growth inhibition (cytostatic effect)
  IC (TGI): 1.38 µM
PANC-1; PANC-1, read-out: LC50 PANC-1, PANC-1, LC=cell killing (cytotoxic effect)
  CC50: 8.76 µM
DU-145; DU-145, DU-145
  GI50: 0.111 µM
DU-145; DU-145, DU-145, total growth inhibition (cytostatic effect)
  IC (TGI): 0.309 µM
DU-145; DU-145, read-out: LC50 DU-145, DU-145, cell killing (cytotoxic effect)
  CC50: 0.857 µM
IGROV-ET; IGROV-ET
  GI50: 0.666 µM
IGROV-ET; IGROV-ET, total growth inhibition (cytostatic effect)
  IC (TGI): 3.01 µM
IGROV-ET; read-out: LC50 IGROV-ET, IGROV-ET, cell killing (cytotoxic effect)
  CC50: 8.76 µM
SK-MEL-28; SK-MEL-28, MEL-28
  GI50: 1.35 µM
SK-MEL-28; SK-MEL-28, MEL-28, total growth inhibition (cytostatic effect)
  IC (TGI): 2.87 µM
SK-MEL-28; SK-MEL-28, read-out: LC50 MEL-28, MEL-28, cell killing (cytotoxic effect)
  CC50: 6.13 µM
K-562; K562, K-562
  GI50: 0.673 µM
K-562; K562, K-562, TGI=total growth inhibition (cytostatic effect)
  IC (TGI): 2.43 µM
K-562; K562, read-out: LC50 K-562, K-562, LC=cell killing (cytotoxic effect)
  CC50: 8.31 µM
